Measured values: US5356911A, “Substituted biphenylpyridones” (Bayer Aktiengesellschaft, priority 1991, dated 1994)
Counter-ions that a name gives are not always drawn.

tested on: contraction of the isolated rabbit aorta induced by angiotensin II; assay: Inhibition of the angiotensin II-induced vascular contraction of isolated rabbit aorta rings in vitro; type: cell-based; settings: Oryctolagus cuniculus; isolated aorta rings of rabbits in vitro; based on 3rd = sub-maximal agonist concentration; read-out: IC50 for contractions induced by AII
Method: Investigation of the Inhibition of the Contraction Induced by Agonists
Rabbits of both sexes are stunned by a blow to the neck and bled out, or in some cases anaesthetised with Nembutal (about 60-80 mg/kg i.v.) and sacrificed by opening the thorax. The thorax aorta is removed, freed of adhering connective tissue, divided into 1.5 mm wide ring segments and individually transferred under an initial loading of about 3.5 g to 10 ml organ baths containing 95% O2, 5% CO2 -aerated Krebs-Henseleit nutrient solution adjusted to 37° C. and of the following composition: 119 mmol/l of NaCl; 2.5 mmol/l of CaCl2 ×2H2 O; 1.2 mmol/l of KH2 PO4; 10 mmol/l of glucose; 4.8 mmol/l of KCl; 1.4 mmol/l of MgSO4 ×7 H2 O and 25 mmol/l of NaHCO3.
The contractions are detected isometrically by Statham UC2 cells by means of bridge amplifiers (ifd Mulheim or DSM Aalen) and digitalised and analysed by means of an A/D converter (System 570, Keithley Munich). The agonist dose-response curves (DRC) are carried out hourly. With each DRC, 3 or 4 individual concentrations are applied to the baths at 4 min intervals. After the end of the DRC and subsequent washing-out cycles (16 times, in each case about 5 sec/min with the abovementioned nutrient solution), a 28-minute resting or incubation phase follows, in the course of which the contractions as a rule reach the starting value again.
The height of the 3rd DRC, in the normal case, is used as a reference quantity for the assessment of the test substance to be investigated in other passages, which is applied to the baths in the following DRCs in increasing dosage in each case at the start of the incubation time. Each aorta ring is in this way stimulated for the whole day, always with the same agonist.
For the calculation of the IC50 (concentration at which the substance to be investigated causes a 50% inhibition), the effect is in each case based on the 3rd=sub-maximal agonist concentration.
rings of rabbits in vitro
IC50 (g/ml) for contractions induced by: AII

Compound | IC50
CCCc1cc(C(=O)OC)cc(=O)n1Cc1ccc(-c2ccccc2-c2nnn[nH]2)cc1 [LXXVIII] | 0.034 µM
CCCCc1cc(C(=O)OCc2ccccc2)cc(=O)n1Cc1ccc(-c2ccccc2-c2nnn[nH]2)cc1 [XLIII] | 0.039 µM
CCCCc1cccc(=O)n1Cc1ccc(-c2ccccc2-c2nnn[nH]2)cc1 [XXXIII] | 0.0073 µM

Now from value to compound:

IC50 | Compound
0.12 µM | CCCCc1cc(C(=O)O)cc(=O)n1Cc1ccc(-c2ccccc2-c2nnn[nH]2)cc1 [Example XCII, 6-Butyl-4-carboxy-2-oxo-1[(2'-tetrazol-5-yl-biphenyl-4-yl)methyl-1,2-dihydropyridinedisodium salt]
0.013 µM | CCCCc1cc(CO)cc(=O)n1Cc1ccc(-c2ccccc2-c2nnn[nH]2)cc1 [LIV]
0.0037 µM | CCCCc1cc(C(N)=O)cc(=O)n1Cc1ccc(-c2ccccc2-c2nnn[nH]2)cc1 [XLV]

tested on: Angiotensin II-Infused Rat; assay: Blood pressure measurements on the angiotensin II-infused rat; type: in vivo, Male Wistar rats; settings: 0.3 mg/kg p.o.; angiotensin II infusion 0.3 μg/kg/min; anaesthetised rats
Method: Blood Pressure Measurements on the Angiotensin II-Infused Rat
Male Wistar rats (Moellegaard, Copenhagen, Denmark) having a body weight of 300-350 g are anaesthetised with thiopental (100 mg/kg i.p.). After tracheotomy, one catheter is inserted in the femoral artery for blood pressure measurement and one catheter is inserted in the femoral veins for angiotensin II infusion and one catheter for substance administration. After administration of the ganglionic blocker pentolinium (5 mg/kg i.v.), angiotensin II infusion (0.3 μg/kg/min) is started. As soon as the blood pressure values have reached a stable plateau, the test substances are administered either intravenously or orally as a suspension or solution in 0.5% tylose.

Compound | Blood pressure decrease
6-Butyl-4-methoxycarbonyl-2-oxo-1-{[2'-(N-triphenylmethyl-tetrazol-5-yl)biphenyl-4-yl]methyl}-1,2-dihydropyridine [Example I] | > 50 mm Hg

biological target: T1, Angiotensin II receptor (Bos taurus, UniProt P25104); assay: Inhibition of specific binding of 3H-angiotensin II to the angiotensin II receptor on membrane fractions of the adrenal cortex; design: species or system cattle (bovine); settings: 3H-angiotensin II (3-5 nM), bovine adrenal cortex membranes, 60 min, room temperature
T1 construct: Adrenal cortices of cattle (ACC), which have been freshly removed and carefully freed of gland medulla; from tissue; host or cells: bovine adrenal cortex, partially purified membrane fractions
T1 sequence (P25104 1-359): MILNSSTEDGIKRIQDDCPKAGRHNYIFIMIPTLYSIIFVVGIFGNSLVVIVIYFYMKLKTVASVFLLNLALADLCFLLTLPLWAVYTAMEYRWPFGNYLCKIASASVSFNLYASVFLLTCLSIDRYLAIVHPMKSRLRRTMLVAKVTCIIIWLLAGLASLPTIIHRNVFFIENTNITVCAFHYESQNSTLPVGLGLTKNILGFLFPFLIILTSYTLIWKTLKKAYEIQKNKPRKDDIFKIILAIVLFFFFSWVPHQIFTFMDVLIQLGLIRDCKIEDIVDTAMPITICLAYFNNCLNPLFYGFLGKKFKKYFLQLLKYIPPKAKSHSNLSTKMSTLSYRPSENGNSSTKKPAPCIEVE
From the text: Interaction of the Compounds According to the Invention With the Angiotensin II Receptor on Membrane Fractions of the Adrenal Cortex (Cattle)
Adrenal cortices of cattle (ACC), which have been freshly removed and carefully freed of gland medulla, are comminuted in sucrose solution (0.32M) with the aid of an Ultra-Turrax (Janke & Kunkel, Staufen i.B.) to give a coarse membrane homogenate and partially purified in two centrifugation steps to give membrane fractions. The investigations of receptor binding were carried out on partially purified membrane fractions of bovine ACC using radioactive angiotensin II in an assay volume of 0.25 ml, which in detail contains the partially purified membranes (50-80 μg), ^3 H-angiotensin II (3-5 nM), test buffer solution (50 mM tris, pH 7.2, 5 mM MgCl2 and the substances to be investigated. After an incubation time of 60 min at room temperature, the unbound radioactivity of the samples is separated by means of moistened glass fibre filters (Whatman GF/C) and the bound radioactivity is measured spectrophotometrically in a scintillation cocktail after washing the protein with ice-cold buffer solution (50 mM tris/HCl, pH 7.4, 5% PEG 6000). The analysis of the raw data was carried out using computer programs to give Ki and IC50 values (Ki: IC50 values corrected for the radioactivity used; IC50 values: concentration at which the substance to be investigated causes a 50% inhibition of the specific binding of the radioligand).

Compound | Ki
CCCc1cc(C(N)=O)cc(=O)n1Cc1ccc(-c2ccccc2-c2nnn[nH]2)cc1 [Example LVI] | 0.009 µM
N#Cc1c(C(=O)O)cc(C2CC2)n(Cc2ccc(-c3ccccc3-c3nnn[nH]3)cc2)c1=O [XCIV] | 0.042 µM
CCCCc1cc(C(=O)OCC)c(C#N)c(=O)n1Cc1ccc(-c2ccccc2-c2nnn[nH]2)cc1 [XLVII] | 0.22 µM
CCc1cc(CC)n(Cc2ccc(-c3ccccc3-c3nnn[nH]3)cc2)c(=O)c1C#N [XXXIV] | > 10 µM

The next lines start with the values.

Ki | Compound
0.015 µM | CCCCc1cc(COC)cc(=O)n1Cc1ccc(-c2ccccc2-c2nnn[nH]2)cc1 [Example LV]
0.079 µM | CCCCc1cc(COC)cc(=O)n1Cc1ccc(-c2ccccc2-c2nnn[nH]2)cc1 [LXXXII]
